Reference: patent US10344060B2 (priority 2013, dated 2019)

biological target: hNav1.7 (Homo sapiens, UniProt Q15858); assay: cell-based; settings: ratio of IonWorks Quattro IC50 values, Nav1.4 over Nav1.7
Sequence (Q15858 whole entry): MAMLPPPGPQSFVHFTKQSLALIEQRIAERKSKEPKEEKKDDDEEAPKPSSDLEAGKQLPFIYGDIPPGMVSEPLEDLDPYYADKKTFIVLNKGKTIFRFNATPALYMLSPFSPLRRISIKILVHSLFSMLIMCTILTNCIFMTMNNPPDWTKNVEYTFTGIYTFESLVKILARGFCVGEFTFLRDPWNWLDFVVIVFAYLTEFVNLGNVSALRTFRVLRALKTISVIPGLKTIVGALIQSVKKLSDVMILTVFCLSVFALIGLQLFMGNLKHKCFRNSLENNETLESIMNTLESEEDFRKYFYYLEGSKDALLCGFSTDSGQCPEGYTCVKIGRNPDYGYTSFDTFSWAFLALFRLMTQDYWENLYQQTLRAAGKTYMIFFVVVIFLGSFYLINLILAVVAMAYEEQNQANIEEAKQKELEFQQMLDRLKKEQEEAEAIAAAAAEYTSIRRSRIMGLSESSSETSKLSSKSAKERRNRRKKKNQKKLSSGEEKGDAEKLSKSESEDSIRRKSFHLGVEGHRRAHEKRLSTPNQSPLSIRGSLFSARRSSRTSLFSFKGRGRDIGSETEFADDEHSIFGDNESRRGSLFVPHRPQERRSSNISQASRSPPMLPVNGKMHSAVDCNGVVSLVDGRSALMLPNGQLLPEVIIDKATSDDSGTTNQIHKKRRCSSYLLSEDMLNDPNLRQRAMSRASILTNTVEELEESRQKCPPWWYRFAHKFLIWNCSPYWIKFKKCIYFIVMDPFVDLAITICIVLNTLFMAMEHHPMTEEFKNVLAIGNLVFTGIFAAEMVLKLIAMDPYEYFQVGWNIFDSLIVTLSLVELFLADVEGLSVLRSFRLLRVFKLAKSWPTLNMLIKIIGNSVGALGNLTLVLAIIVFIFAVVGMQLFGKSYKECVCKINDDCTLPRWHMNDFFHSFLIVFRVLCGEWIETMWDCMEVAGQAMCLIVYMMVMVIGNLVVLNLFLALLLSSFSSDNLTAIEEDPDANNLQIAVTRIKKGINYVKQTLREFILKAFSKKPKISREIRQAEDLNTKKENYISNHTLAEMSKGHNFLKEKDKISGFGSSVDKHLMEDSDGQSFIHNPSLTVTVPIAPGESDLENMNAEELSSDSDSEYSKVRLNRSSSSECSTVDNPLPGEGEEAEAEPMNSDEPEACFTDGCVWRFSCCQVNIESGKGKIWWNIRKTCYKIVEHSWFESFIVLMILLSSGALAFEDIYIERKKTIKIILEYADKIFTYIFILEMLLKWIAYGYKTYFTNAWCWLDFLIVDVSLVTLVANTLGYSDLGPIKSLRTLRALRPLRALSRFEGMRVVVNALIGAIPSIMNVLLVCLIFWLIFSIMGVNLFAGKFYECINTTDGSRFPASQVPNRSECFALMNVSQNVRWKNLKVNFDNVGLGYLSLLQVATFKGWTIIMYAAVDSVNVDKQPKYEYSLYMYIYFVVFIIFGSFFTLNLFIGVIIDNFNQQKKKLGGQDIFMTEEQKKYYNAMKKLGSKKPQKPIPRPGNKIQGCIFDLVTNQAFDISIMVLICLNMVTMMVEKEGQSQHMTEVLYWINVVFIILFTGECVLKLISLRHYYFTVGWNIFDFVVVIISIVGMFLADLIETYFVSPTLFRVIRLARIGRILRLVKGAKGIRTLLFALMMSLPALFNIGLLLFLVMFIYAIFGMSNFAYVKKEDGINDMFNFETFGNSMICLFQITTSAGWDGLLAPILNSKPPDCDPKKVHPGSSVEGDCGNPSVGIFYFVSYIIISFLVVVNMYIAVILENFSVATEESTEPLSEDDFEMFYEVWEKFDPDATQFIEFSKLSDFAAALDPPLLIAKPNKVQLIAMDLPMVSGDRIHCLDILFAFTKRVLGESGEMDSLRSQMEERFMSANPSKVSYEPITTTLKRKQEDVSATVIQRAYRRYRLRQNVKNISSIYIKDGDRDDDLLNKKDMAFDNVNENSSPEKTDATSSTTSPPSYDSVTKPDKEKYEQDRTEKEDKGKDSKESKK

SMILES	Nav1.4/Nav1.7
CCC[C@@H]1NC(=O)[C@H](Cc2c[nH]c3ccccc23)NC(=O)[C@H](CCCCN)NC(=O)[C@H](CCC(N)=O)NC(=O)[C@@H](NC(=O)[C@@H](N)Cc2ccc(O)cc2)CSSC[C@@H]2NC(=O)[C@@H]3CSSC[C@@H](C(=O)N[C@@H](CCCNC(=N)N)C(=O)N[C@@H](CCCCN)C(=O)N[C@H](C(=O)N[C@H](C(N)=O)[C@@H](C)CC)[C@@H](C)CC)NC(=O)[C@H](Cc4c[nH]c5ccccc45)NC(=O)[C@H](CC(C)C)NC(=O)[C@H](CCCCN)NC(=O)[C@H](CSSC[C@H](NC(=O)[C@H]([C@@H](C)O)NC(=O)[C@H](Cc4c[nH]c5ccccc45)NC1=O)C(=O)N[C@@H](CC(=O)O)C(=O)N[C@@H](CO)C(=O)N[C@@H](CCCCN)C(=O)N[C@@H](CCCNC(=N)N)C(=O)N[C@@H](C)C(=O)N3)NC(=O)[C@H](CCC(=O)O)NC(=O)[C@H](CC(C)C)NC(=O)CNC(=O)[C@H](CCC(=O)O)NC2=O [compound 111]	7
CC[C@H](C)[C@H](NC(=O)[C@H](CCCCN)NC(=O)[C@H](CCCNC(=N)N)NC(=O)[C@@H]1CSSC[C@@H]2NC(=O)[C@H](C)NC(=O)[C@H](CCCNC(=N)N)NC(=O)[C@H](CCCCN)NC(=O)[C@H](CO)NC(=O)[C@H](CC(=O)O)NC(=O)[C@@H]3CSSC[C@H](NC(=O)[C@H](CCC(=O)O)NC(=O)[C@H](CC(C)C)NC(=O)CNC(=O)[C@H](CCC(=O)O)NC(=O)[C@H](CSSC[C@H](NC(=O)[C@@H](N)Cc4ccc(O)cc4)C(=O)N[C@@H](CCC(N)=O)C(=O)N[C@@H](CCCCN)C(=O)N[C@@H](Cc4c[nH]c5ccccc45)C(=O)N[C@@H](CCSC)C(=O)N[C@@H](Cc4c[nH]c5ccccc45)C(=O)N[C@@H]([C@@H](C)O)C(=O)N3)NC2=O)C(=O)N[C@@H](CCCCN)C(=O)N[C@@H](CC(C)C)C(=O)N[C@@H](Cc2c[nH]c3ccccc23)C(=O)N1)C(=O)N[C@H](C(=O)N[C@@H](Cc1c[nH]c2ccccc12)C(N)=O)[C@@H](C)CC [compound 113]	30
CC[C@H](C)[C@H](NC(=O)[C@@H](NC(=O)[C@H](CCCCN)NC(=O)[C@H](CCCNC(=N)N)NC(=O)[C@@H]1CSSC[C@@H]2NC(=O)[C@H](C)NC(=O)[C@H](CCCNC(=N)N)NC(=O)[C@H](CCCCN)NC(=O)[C@H](CO)NC(=O)[C@H](CC(=O)O)NC(=O)[C@@H]3CSSC[C@H](NC(=O)[C@H](Cc4ccc(C(=O)O)cc4)NC(=O)[C@H](CC(C)C)NC(=O)CNC(=O)[C@H](CCC(=O)O)NC(=O)[C@H](CSSC[C@H](NC(=O)[C@@H](N)Cc4ccc(O)cc4)C(=O)N[C@@H](CCC(N)=O)C(=O)N[C@@H](CCCCN)C(=O)N[C@@H](Cc4c[nH]c5ccccc45)C(=O)N[C@@H](CCSC)C(=O)N[C@@H](Cc4c[nH]c5ccccc45)C(=O)N[C@@H]([C@@H](C)O)C(=O)N3)NC2=O)C(=O)N[C@@H](CCCCN)C(=O)N[C@@H](CC(C)C)C(=O)N[C@@H](Cc2c[nH]c3ccccc23)C(=O)N1)[C@@H](C)CC)C(N)=O [compound 114]	24
CC[C@H](C)[C@H](NC(=O)[C@@H](NC(=O)[C@H](CCCCN)NC(=O)[C@H](CCCNC(=N)N)NC(=O)[C@@H]1CSSC[C@@H]2NC(=O)[C@H](C)NC(=O)[C@H](CCCNC(=N)N)NC(=O)[C@H](CCCCN)NC(=O)[C@H](CO)NC(=O)[C@H](CC(=O)O)NC(=O)[C@@H]3CSSC[C@H](NC(=O)[C@H]([C@@H](C)CC)NC(=O)[C@H](CC(C)C)NC(=O)CNC(=O)[C@H](CCC(=O)O)NC(=O)[C@H](CSSC[C@H](NC(=O)[C@@H](N)Cc4ccc(O)cc4)C(=O)N[C@@H](CCC(N)=O)C(=O)N[C@@H](CCCCN)C(=O)N[C@@H](Cc4c[nH]c5ccccc45)C(=O)N[C@@H](CCSC)C(=O)N[C@@H](Cc4c[nH]c5ccccc45)C(=O)N[C@@H]([C@@H](C)O)C(=O)N3)NC2=O)C(=O)N[C@@H](CCCCN)C(=O)N[C@@H](CC(C)C)C(=O)N[C@@H](Cc2c[nH]c3ccccc23)C(=O)N1)[C@@H](C)CC)C(N)=O [compound 118]	15
CC[C@H](C)[C@H](NC(=O)[C@@H](NC(=O)[C@H](CCCCN)NC(=O)[C@H](CCCNC(=N)N)NC(=O)[C@@H]1CSSC[C@@H]2NC(=O)[C@H](C)NC(=O)[C@H](CCCNC(=N)N)NC(=O)[C@H](CCCCN)NC(=O)[C@H](CO)NC(=O)[C@H](CC(=O)O)NC(=O)[C@@H]3CSSC[C@H](NC(=O)[C@H](CC(C)C)NC(=O)[C@H](CC(C)C)NC(=O)CNC(=O)[C@H](CCC(=O)O)NC(=O)[C@H](CSSC[C@H](NC(=O)[C@@H](N)Cc4ccc(O)cc4)C(=O)N[C@@H](CCC(N)=O)C(=O)N[C@@H](CCCCN)C(=O)N[C@@H](Cc4c[nH]c5ccccc45)C(=O)N[C@@H](CCSC)C(=O)N[C@@H](Cc4c[nH]c5ccccc45)C(=O)N[C@@H]([C@@H](C)O)C(=O)N3)NC2=O)C(=O)N[C@@H](CCCCN)C(=O)N[C@@H](CC(C)C)C(=O)N[C@@H](Cc2c[nH]c3ccccc23)C(=O)N1)[C@@H](C)CC)C(N)=O [compound 119]	14
CC[C@H](C)[C@H](NC(=O)[C@@H](NC(=O)[C@H](CCCCN)NC(=O)[C@H](CCCNC(=N)N)NC(=O)[C@@H]1CSSC[C@@H]2NC(=O)[C@H](C)NC(=O)[C@H](CCCNC(=N)N)NC(=O)[C@H](CCCCN)NC(=O)[C@H](CO)NC(=O)[C@H](CC(=O)O)NC(=O)[C@@H]3CSSC[C@H](NC(=O)[C@H](C(C)C)NC(=O)[C@H](CC(C)C)NC(=O)CNC(=O)[C@H](CCC(=O)O)NC(=O)[C@H](CSSC[C@H](NC(=O)[C@@H](N)Cc4ccc(O)cc4)C(=O)N[C@@H](CCC(N)=O)C(=O)N[C@@H](CCCCN)C(=O)N[C@@H](Cc4c[nH]c5ccccc45)C(=O)N[C@@H](CCSC)C(=O)N[C@@H](Cc4c[nH]c5ccccc45)C(=O)N[C@@H]([C@@H](C)O)C(=O)N3)NC2=O)C(=O)N[C@@H](CCCCN)C(=O)N[C@@H](CC(C)C)C(=O)N[C@@H](Cc2c[nH]c3ccccc23)C(=O)N1)[C@@H](C)CC)C(N)=O [compound 120]	31

biological target: hNav1.4 (Homo sapiens, UniProt P35499); assay: cell-based; type: cell-based; settings: ratio of IonWorks Quattro IC50 values; Table 9
Sequence (P35499 whole entry): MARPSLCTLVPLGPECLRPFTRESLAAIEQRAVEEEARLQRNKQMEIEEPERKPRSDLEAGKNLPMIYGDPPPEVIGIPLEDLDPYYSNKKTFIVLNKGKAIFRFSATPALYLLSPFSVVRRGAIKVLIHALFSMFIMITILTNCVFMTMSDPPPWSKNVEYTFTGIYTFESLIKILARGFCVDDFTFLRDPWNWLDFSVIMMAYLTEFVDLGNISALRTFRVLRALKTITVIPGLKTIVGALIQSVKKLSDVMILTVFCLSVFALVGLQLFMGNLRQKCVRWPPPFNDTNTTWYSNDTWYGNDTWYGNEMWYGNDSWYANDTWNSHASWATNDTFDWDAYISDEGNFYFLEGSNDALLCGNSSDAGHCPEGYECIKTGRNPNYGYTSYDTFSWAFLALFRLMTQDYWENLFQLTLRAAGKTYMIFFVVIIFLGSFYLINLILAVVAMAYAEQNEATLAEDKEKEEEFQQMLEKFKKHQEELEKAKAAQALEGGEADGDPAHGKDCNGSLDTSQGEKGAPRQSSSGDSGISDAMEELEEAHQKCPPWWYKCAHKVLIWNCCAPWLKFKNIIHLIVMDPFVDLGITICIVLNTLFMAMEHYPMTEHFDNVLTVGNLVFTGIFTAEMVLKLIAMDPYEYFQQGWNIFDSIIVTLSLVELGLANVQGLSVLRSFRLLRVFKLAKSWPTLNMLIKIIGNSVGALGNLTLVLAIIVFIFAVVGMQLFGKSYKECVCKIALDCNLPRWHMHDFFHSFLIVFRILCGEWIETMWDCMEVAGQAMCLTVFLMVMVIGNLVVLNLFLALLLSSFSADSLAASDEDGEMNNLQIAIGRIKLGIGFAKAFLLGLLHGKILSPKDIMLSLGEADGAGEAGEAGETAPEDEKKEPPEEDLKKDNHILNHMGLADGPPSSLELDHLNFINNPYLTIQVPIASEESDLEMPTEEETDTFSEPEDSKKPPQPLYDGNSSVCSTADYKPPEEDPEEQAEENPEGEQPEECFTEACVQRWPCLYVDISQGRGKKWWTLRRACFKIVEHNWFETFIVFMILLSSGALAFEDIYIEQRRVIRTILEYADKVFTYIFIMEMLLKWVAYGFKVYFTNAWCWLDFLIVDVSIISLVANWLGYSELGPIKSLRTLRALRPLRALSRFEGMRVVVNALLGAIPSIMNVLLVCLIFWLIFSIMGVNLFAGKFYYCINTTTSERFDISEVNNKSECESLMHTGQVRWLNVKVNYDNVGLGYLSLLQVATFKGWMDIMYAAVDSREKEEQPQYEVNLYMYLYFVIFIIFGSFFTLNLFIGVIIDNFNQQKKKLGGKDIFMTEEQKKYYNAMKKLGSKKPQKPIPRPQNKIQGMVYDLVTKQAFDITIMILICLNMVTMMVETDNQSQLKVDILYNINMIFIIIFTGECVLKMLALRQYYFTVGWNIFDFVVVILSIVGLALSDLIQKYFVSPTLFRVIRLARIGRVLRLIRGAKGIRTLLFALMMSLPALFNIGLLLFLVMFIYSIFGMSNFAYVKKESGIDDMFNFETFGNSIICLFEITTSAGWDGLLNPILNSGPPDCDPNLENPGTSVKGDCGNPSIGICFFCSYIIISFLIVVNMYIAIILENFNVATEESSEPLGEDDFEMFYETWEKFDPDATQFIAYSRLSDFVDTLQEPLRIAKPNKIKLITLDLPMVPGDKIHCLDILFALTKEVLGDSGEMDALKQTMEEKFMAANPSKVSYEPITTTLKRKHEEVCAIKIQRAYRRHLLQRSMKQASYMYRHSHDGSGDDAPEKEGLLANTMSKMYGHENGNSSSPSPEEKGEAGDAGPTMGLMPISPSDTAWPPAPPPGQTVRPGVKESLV

SMILES	Nav1.4/Nav1.7
CC[C@H](C)[C@H](NC(=O)[C@@H](NC(=O)[C@H](CCCCN)NC(=O)[C@H](CCCNC(=N)N)NC(=O)[C@@H]1CSSC[C@@H]2NC(=O)[C@H](C)NC(=O)[C@H](CCCNC(=N)N)NC(=O)[C@H](CCCCN)NC(=O)[C@H](CO)NC(=O)[C@H](CC(=O)O)NC(=O)[C@@H]3CSSC[C@H](NC(=O)[C@H](CCC(=O)O)NC(=O)[C@H](CC(C)C)NC(=O)CNC(=O)[C@H](CCC(=O)O)NC(=O)[C@H](CSSC[C@H](NC(=O)[C@@H](N)Cc4cn(CCCOCCOCCOCCOCCOCCOCCOCCOCCOCCOCCN)nn4)C(=O)N[C@@H](CCC(N)=O)C(=O)N[C@@H](CCCCN)C(=O)N[C@@H](Cc4c[nH]c5ccccc45)C(=O)N[C@@H](CCSC)C(=O)N[C@@H](Cc4c[nH]c5ccccc45)C(=O)N[C@@H]([C@@H](C)O)C(=O)N3)NC2=O)C(=O)N[C@@H](CCCCN)C(=O)N[C@@H](CC(C)C)C(=O)N[C@@H](Cc2c[nH]c3ccccc23)C(=O)N1)[C@@H](C)CC)C(N)=O [compound 165]	28
CC[C@H](C)[C@H](NC(=O)[C@@H](NC(=O)[C@H](CCCCN)NC(=O)[C@H](CCCNC(=N)N)NC(=O)[C@@H]1CSSC[C@@H]2NC(=O)[C@H](C)NC(=O)[C@H](CCCNC(=N)N)NC(=O)[C@H](CCCCN)NC(=O)[C@H](CO)NC(=O)[C@H](CC(=O)O)NC(=O)[C@@H]3CSSC[C@H](NC(=O)[C@H](CCC(=O)O)NC(=O)[C@H](CC(C)C)NC(=O)CNC(=O)[C@H](Cc4cn(CCCOCCOCCOCCOCCOCCOCCOCCOCCOCCOCCN)nn4)NC(=O)[C@H](CSSC[C@H](NC(=O)[C@@H](N)Cc4ccc(O)cc4)C(=O)N[C@@H](CCC(N)=O)C(=O)N[C@@H](CCCCN)C(=O)N[C@@H](Cc4c[nH]c5ccccc45)C(=O)N[C@@H](CCSC)C(=O)N[C@@H](Cc4c[nH]c5ccccc45)C(=O)N[C@@H]([C@@H](C)O)C(=O)N3)NC2=O)C(=O)N[C@@H](CCCCN)C(=O)N[C@@H](CC(C)C)C(=O)N[C@@H](Cc2c[nH]c3ccccc23)C(=O)N1)[C@@H](C)CC)C(N)=O [compound 178]	28
CC[C@H](C)[C@H](NC(=O)[C@@H](NC(=O)[C@H](CCCCN)NC(=O)[C@H](CCCNC(=N)N)NC(=O)[C@@H]1CSSC[C@@H]2NC(=O)[C@H](C)NC(=O)[C@H](CCCNC(=N)N)NC(=O)[C@H](CCCCN)NC(=O)[C@H](CO)NC(=O)[C@H](CC(=O)O)NC(=O)[C@@H]3CSSC[C@H](NC(=O)[C@H](CCC(=O)O)NC(=O)[C@H](CC(C)C)NC(=O)CNC(=O)[C@H](CCC(=O)O)NC(=O)[C@H](CSSC[C@H](NC(=O)[C@@H](N)Cc4ccc(O)cc4)C(=O)N[C@@H](CCC(N)=O)C(=O)N[C@@H](CCCCN)C(=O)N[C@@H](Cc4c[nH]c5ccccc45)C(=O)N[C@@H](CCSC)C(=O)N[C@@H](Cc4c[nH]c5ccccc45)C(=O)N[C@@H]([C@@H](C)O)C(=O)N3)NC2=O)C(=O)N[C@@H](CCCCN)C(=O)N[C@@H](Cc2cn(CCCOCCOCCOCCOCCOCCOCCOCCOCCOCCOCCN)nn2)C(=O)N[C@@H](Cc2c[nH]c3ccccc23)C(=O)N1)[C@@H](C)CC)C(N)=O [compound 183]	1
CC[C@H](C)[C@H](NC(=O)[C@H](Cc1cn(CCCOCCOCCOCCOCCOCCOCCOCCOCCOCCOCCN)nn1)NC(=O)[C@H](CCCCN)NC(=O)[C@H](CCCNC(=N)N)NC(=O)[C@@H]1CSSC[C@@H]2NC(=O)[C@H](C)NC(=O)[C@H](CCCNC(=N)N)NC(=O)[C@H](CCCCN)NC(=O)[C@H](CO)NC(=O)[C@H](CC(=O)O)NC(=O)[C@@H]3CSSC[C@H](NC(=O)[C@H](CCC(=O)O)NC(=O)[C@H](CC(C)C)NC(=O)CNC(=O)[C@H](CCC(=O)O)NC(=O)[C@H](CSSC[C@H](NC(=O)[C@@H](N)Cc4ccc(O)cc4)C(=O)N[C@@H](CCC(N)=O)C(=O)N[C@@H](CCCCN)C(=O)N[C@@H](Cc4c[nH]c5ccccc45)C(=O)N[C@@H](CCSC)C(=O)N[C@@H](Cc4c[nH]c5ccccc45)C(=O)N[C@@H]([C@@H](C)O)C(=O)N3)NC2=O)C(=O)N[C@@H](CCCCN)C(=O)N[C@@H](CC(C)C)C(=O)N[C@@H](Cc2c[nH]c3ccccc23)C(=O)N1)C(N)=O [compound 187]	3
